Columns and labels:
[1] = Solubility of the raw material; format: physicochemical; conditions: needs to be pre-dissolved at 80°C in propylene glycol
Propionibacterium acnes = conditions: cited from earlier work; for antibacterial / antimicrobial activity against Propionibacterium Acnes: raw material description, PCA ethyl cocoyl arginate at a pH lower than 7

Compound: CCCCCCCCCCCC(=O)N[C@@H](CCCNC(=N)N)C(=O)O [Lauroyl arginine]
- solubility [1]: poorly soluble

Compound: Laureth-7 citrate
- effectiveness as antibacterial against Propionibacterium acnes (Propionibacterium acnes; compared with other surfactants, US2008/0070986): 2 magnitude orders less effective
- antibacterial / antimicrobial activity against Propionibacterium Acnes (Propionibacterium acnes): known antibacterial properties

Compound: PCA ethyl cocoyl arginate
- antibacterial / antimicrobial activity against Propionibacterium Acnes (Propionibacterium acnes): antimicrobial activity

Reference: patent EP3505218B1, “A GENTLE DETERGENT COMPOSITION FOR GREASY AND ACNEIC SKINS” (Unifarco S.p.A., priority 2017, dated 2019)
